Non-standard residues stand in square brackets, D forms with d. Residues, ends and D or L forms follow the SMILES beside them. *: point of attachment. 1Nal = N[C@@H](Cc1cccc2ccccc12)C(=O)O; Palmitoyl = CCCCCCCCCCCCCCCC(=O)*; Myristoyl = CCCCCCCCCCCCCC(=O)*; Cha = N[C@@H](CC1CCCCC1)C(=O)O; Octanoyl = CCCCCCCC(=O)*; Dap = NC[C@H](N)C(=O)O; Sar = CNCC(=O)O
Columns and labels:
[1] = target: T1, human GHS-R1a receptor (Homo sapiens, UniProt Q92847); assay: Competitive binding studies (displacement of 125I-ghrelin); conditions: for % of ghrelin binding: relative to ghrelin = 100
T1 construct: purchased Multispan, Hayward, Calif., USA; host or cells: HEK293T cells, isolated plasma membranes
T1 sequence (Q92847 whole entry): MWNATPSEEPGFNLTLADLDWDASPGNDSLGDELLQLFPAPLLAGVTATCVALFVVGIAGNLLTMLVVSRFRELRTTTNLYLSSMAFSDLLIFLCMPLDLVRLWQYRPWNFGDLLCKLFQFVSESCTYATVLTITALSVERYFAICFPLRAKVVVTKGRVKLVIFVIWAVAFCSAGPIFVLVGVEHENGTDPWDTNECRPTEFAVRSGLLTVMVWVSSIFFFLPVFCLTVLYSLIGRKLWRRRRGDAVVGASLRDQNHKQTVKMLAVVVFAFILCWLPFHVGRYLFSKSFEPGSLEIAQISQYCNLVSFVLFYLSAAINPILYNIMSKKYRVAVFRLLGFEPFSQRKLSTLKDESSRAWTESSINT
Method: Isolated plasma membranes from the HEK293T cells with transfected human GHS-R1a receptor (Multispan, Hayward, Calif., USA) were used. […] Experiments were carried out in duplicates at least three times. Competitive binding curves were plotted using GraphPad Prism Software (San Diego, Calif., USA) while comparing the best fit for single binding sites models.

[2] = Pharmacokinetics in vivo after SC administration to mice; conditions: SC 5 mg/kg
Method: Mice were housed at a temperature 22±2° C. under a daily cycle of 12/12 h light/dark (light from 6:00) with free access to water and a standard chow diet St-1 (Mlýn Kocanda, Praha, Czech Republic).
4, 6, 14 and 18 at a dose of 5 mg/kg of body weight (0.2 ml/mouse, n=4). Blood was collected from tails before injection and 0.5, 1, 2, 4, 8, 16 and 24 h after injection. Plasma was separated and stored at −20° C.

[3] = system: fed C57BL/6 male mice; assay: Effect of SC administered ghrelin analogs on food intake; assay type: in vivo; conditions: for maximal effect at 5 mg/kg on food intake: SC 5 mg/kg, evaluated 480 min after administration; for ED50 (250 min after injection), effect on food intake: SC, fed mice
Method: All of the experiments followed the ethical guidelines for animal experiments and Czech Republic law 246/1992 and were approved by the committee for experiments with laboratory animals of the Academy of Sciences of the Czech Republic. Male C57BL/6 mice (Charles River, Germany) were housed at a temperature 22±2° C. under a daily cycle of 12/12 h light/dark (light from 6:00) with free access to water and a standard chow diet St-1 which contained […] of calories from protein, fat and carbohydrate, respectively, and its energy content was 3.4 kcal/g (Mlýn Kocanda, Praha, Czech Republic). Mice were placed into separate cages for one week before experiment, they had free access to water and food pellets. Closely before the experiment, the food pellets were removed from the cages. […] 15 min after the injection, mice were given preweighed food pellets. Food intake was monitored for 8-10 hours at 30-min intervals. Mice had free access to water during the experiment. Experiments were performed at least twice for each tested compound, each experimental group had at least 5 mice.
Data from food intake experiments were analyzed by one-way ANOVA followed by Dunnett's post-hoc test using GraphPad Prism Software (San Diego, Calif., USA), P<0.05 was considered statistically significant. ED50 values were calculated using GraphPad Prism Software as the dose of the tested compound required to elicit half-maximal effect at 250 min after administration of the corresponding compound.
Food intake was monitored for […] after administration of the compounds. ED50 values were determined 250 min after administration. Maximal effect on food intake was evaluated […] after administration of the compounds at a dose of 5 mg/kg of body weight. NT—not tested.

[4] = system: rat model of subtotal nephrectomy; assay: Rat model of renal cachexia (subtotal nephrectomy, SNx); assay type: in vivo; conditions: SNx rats, 15-day SC 5 mg/kg
Method: Male F344 rats (Harlan, Italy) were housed at a temperature of 22±2° C. under a daily cycle of 12/12 h light/dark (light from 6:00) with free access to water and a standard chow diet St-1 (Mlýn Kocanda, Praha, Czech Republic).
To induce renal dysfunction, 5/6 nephrectomy was performed to anesthetized 8-week-old rats (SNx group, n=14); the control group was sham-operated (Sham group, n=6). Starting from the following day, the rats were SC injected with saline or ghrelin analog no. 2 (5 mg/kg of body weight, dissolved in saline) for 15 days. Food intake and body weight of the rats was monitored every day. At the end of the experiment, blood was collected for determination of pro-inflammatory cytokines using the Milliplex MAP Rat Cytokine/Chemokine Magnetic Bead Panel (Merck-Millipore, St. Charles, Mo., USA).

Row | % of ghrelin binding [1] [%] | Compound | stability in vivo compared with ghrelin or Dpr^3ghrelin [2] | maximal effect at 5 mg/kg on food intake [3] | ED50 (250 min after injection), effect on food intake [3] [mg/kg] | also measured
1 | 18 | CCCCCCCCCCCCCC(=O)NC[C@H](NC(=O)[C@H](CO)NC(=O)CNC)C(=O)N[C@@H](CC1CCCCC1)C(=O)N[C@@H](CC(C)C)C(=O)N[C@@H](CO)C(=O)N1CCC[C@H]1C(=O)N[C@@H](CCC(=O)O)C(=O)N[C@@H](Cc1c[nH]cn1)C(=O)N[C@@H](CCC(N)=O)C(=O)N[C@@H](CCCCN)C(=O)N[C@@H](C)C(=O)N[C@@H](CCC(N)=O)C(=O)N[C@@H](CCC(N)=O)C(=O)N[C@@H](CCCNC(=N)N)C(=O)N[C@@H](CCCCN)C(=O)N[C@@H](CCC(=O)O)C(=O)N[C@@H](CO)C(=O)N[C@@H](CCCCN)C(=O)N[C@@H](CCCCN)C(=O)N1CCC[C@H]1C(=O)N1CCC[C@H]1C(=O)N[C@@H](C)C(=O)N[C@@H](CCCCN)C(=O)N[C@@H](CC(C)C)C(=O)N[C@@H](CCC(N)=O)C(=O)N1CCC[C@H]1C(=O)N[C@@H](CCCNC(=N)N)C(=O)O [Analog 6] (H-[Sar]S[Dap](Myristoyl)[Cha]LSPEHQKAQQRKESKKPPAKLQPR-OH; N-terminus and C-terminus assumed) | significantly more stable than ghrelin or Dpr^3ghrelin | 276.2 % of Dpr^3ghr | 3.05 | half-life ([2]; male, C57BL/6, mouse, plasma): 7 h
2 |  | CCCCCCCCCCCCCC(=O)NC[C@H](NC(=O)[C@H](CO)NC(=O)CNC)C(=O)N[C@@H](Cc1ccccc1)C(=O)N[C@@H](CC(C)C)C(=O)N[C@@H](CO)C(=O)N1CCC[C@H]1C(=O)N[C@@H](CCC(=O)O)C(=O)N[C@@H](Cc1c[nH]cn1)C(=O)N[C@@H](CCC(N)=O)C(=O)N[C@@H](CCCCN)C(=O)N[C@@H](C)C(=O)N[C@@H](CCC(N)=O)C(=O)N[C@@H](CCC(N)=O)C(=O)N[C@@H](CCCNC(=N)N)C(=O)N[C@@H](CCCCN)C(=O)N[C@@H](CCC(=O)O)C(=O)N[C@@H](CO)C(=O)O [Analog 18] (H-[Sar]S[Dap](Myristoyl)FLSPEHQKAQQRKES-OH) | significantly more stable than ghrelin or Dpr^3ghrelin |  |  | 
3 | 169 | CCCCCCCC(=O)NC[C@H](NC(=O)[C@H](CO)NC(=O)CN)C(=O)N[C@@H](Cc1ccccc1)C(=O)N[C@@H](CC(C)C)C(=O)N[C@@H](CO)C(=O)N1CCC[C@H]1C(=O)N[C@@H](CCC(=O)O)C(=O)N[C@@H](Cc1c[nH]cn1)C(=O)N[C@@H](CCC(N)=O)C(=O)N[C@@H](CCCCN)C(=O)N[C@@H](C)C(=O)N[C@@H](CCC(N)=O)C(=O)N[C@@H](CCC(N)=O)C(=O)N[C@@H](CCCNC(=N)N)C(=O)N[C@@H](CCCCN)C(=O)N[C@@H](CCC(=O)O)C(=O)N[C@@H](CO)C(=O)N[C@@H](CCCCN)C(=O)N[C@@H](CCCCN)C(=O)N1CCC[C@H]1C(=O)N1CCC[C@H]1C(=O)N[C@@H](C)C(=O)N[C@@H](CCCCN)C(=O)N[C@@H](CC(C)C)C(=O)N[C@@H](CCC(N)=O)C(=O)N1CCC[C@H]1C(=O)N[C@@H](CCCNC(=N)N)C(=O)O [Dpr^3ghrelin, reference compound] |  | 100 % of Dpr^3ghr | 0.82 | 
4 |  | (Sar)S(Dpr-N-myr)FLSPEHQKAQQRKESKKPPAKLQPR (XSXFLSPEHQKAQQRKESKKPPAKLQPR; Sar N-terminus; myristoylated Dpr; ghrelin analog) [Analog 2] |  |  |  | IL-1α in blood plasma [4]: 392.3 ± 49.5 pg/mL; IL-2 in blood plasma [4]: 28.1 ± 9.3 pg/mL; IL-6 in blood plasma [4]: 337.3 ± 62.8 pg/mL; IL-10 in blood plasma [4]: 150.7 ± 6.2 pg/mL; TNF-α in blood plasma [4]: 32.6 ± 3.8 pg/mL
5 | 5 | CCCCCCCCCCCCCCCC(=O)NCCCC[C@H](NC(=O)[C@H](C)NC(=O)[C@@H]1CCCN1C(=O)[C@@H]1CCCN1C(=O)[C@H](CCCCN)NC(=O)[C@H](CCCCN)NC(=O)[C@H](CO)NC(=O)[C@H](CCC(=O)O)NC(=O)[C@H](CCCCN)NC(=O)[C@H](CCCNC(=N)N)NC(=O)[C@H](CCC(N)=O)NC(=O)[C@H](CCC(N)=O)NC(=O)[C@H](C)NC(=O)[C@H](CCCCN)NC(=O)[C@H](CCC(N)=O)NC(=O)[C@H](Cc1c[nH]cn1)NC(=O)[C@H](CCC(=O)O)NC(=O)[C@@H]1CCCN1C(=O)[C@H](CO)NC(=O)[C@H](CC(C)C)NC(=O)[C@H](Cc1cccc2ccccc12)NC(=O)[C@H](CNC(=O)CCCCCCC)NC(=O)[C@H](CO)NC(=O)CNC)C(=O)N[C@@H](CC(C)C)C(=O)N[C@@H](CCC(N)=O)C(=O)N1CCC[C@H]1C(=O)N[C@@H](CCCNC(=N)N)C(=O)O [Analog 9] (H-[Sar]S[Dap](Octanoyl)[1Nal]LSPEHQKAQQRKESKKPPAK(Palmitoyl)LQPR-OH; N-terminus and C-terminus assumed) |  | 171.1 % of Dpr^3ghr |  | 
6 | 183 | CCCCCCCCCC(=O)NC[C@H](NC(=O)[C@H](CO)NC(=O)CNC)C(=O)N[C@@H](Cc1ccccc1)C(=O)N[C@@H](CC(C)C)C(=O)N[C@@H](CO)C(=O)N1CCC[C@H]1C(=O)N[C@@H](CCC(=O)O)C(=O)N[C@@H](Cc1c[nH]cn1)C(=O)N[C@@H](CCC(N)=O)C(=O)N[C@@H](CCCCN)C(=O)N[C@@H](C)C(=O)N[C@@H](CCC(N)=O)C(=O)N[C@@H](CCC(N)=O)C(=O)N[C@@H](CCCNC(=N)N)C(=O)N[C@@H](CCCCN)C(=O)N[C@@H](CCC(=O)O)C(=O)N[C@@H](CO)C(=O)N[C@@H](CCCCN)C(=O)N[C@@H](CCCCN)C(=O)N1CCC[C@H]1C(=O)N1CCC[C@H]1C(=O)N[C@@H](C)C(=O)N[C@@H](CCCCN)C(=O)N[C@@H](CC(C)C)C(=O)N[C@@H](CCC(N)=O)C(=O)N1CCC[C@H]1C(=O)N[C@@H](CCCNC(=N)N)C(=O)O [Analog 1] |  | 218.8 % of Dpr^3ghr | 3.90 | affinity for GHS-R1a compared with ghrelin ([1]; in words): higher affinities for GHS-R1a than ghrelin

Source: patent publication US20170044230A1 (USTAV ORGANICKE CHEMIE A BIOCHEMIE AV CR, V.V.I., priority 2014, published 2017)
